The values that follow come from US20220273660A1, “MEK INHIBITOR FOR TREATMENT OF STROKE” (EDVINCE AB, priority 2019, published 2022).

Series [1] concerns rat middle cerebral arteries. Description: Contraction of middle cerebral arteries 48 h after tMCAO, wire myograph. Particulars: for agonist-mediated contraction (% of maximum potassium-mediated contraction): occluded MCAs, 48 h after tMCAO, mean±SD.
Description: Mean arterial blood pressure, pCO2, pO2, pH and plasma glucose were measured prior to the occlusion through an arterial tail catheter (Radiometer; LabChart). A rectal thermometer connected to a homoeothermic blanket was used to maintain body temperature at +37° C. during the surgical procedure. An incision was made in the midline of the neck exposing the right common, internal and external carotid arteries. The common and external carotid arteries were permanently ligated by sutures and an incision was made in the common carotid artery. A laser Doppler probe (Perimed, Järfälla, Sweden) was fixed to the thinned skull in the area corresponding to the area supplied by the middle cerebral artery (1 mm posterior to bregma and 6 mm to the right from the midline). A silicone, rubber-coated monofilament (Doccol Corporation, Redlands, Calif., USA) was inserted through the incision until the tip reached the entrance of the right middle cerebral artery (MCA). The occlusion was confirmed by an abrupt reduction of cortical blood flow that was observed using laser Doppler monitoring. After securing the filament, the skin was sutured and anesthesia was discontinued. After two hours of occlusion, the rats were briefly re-anesthetized to remove the filament and allow reperfusion. […] The animals were allowed to recover 48 hours after surgery with free access to food and water before they were anesthetized with CO2 and decapitated. The brains were removed and immediately chilled in ice-cold bicarbonate buffer solution (for composition, see Drugs, Chemicals and Solutions). Right (occluded) and left (non-occluded) middle cerebral arteries were dissected free from adhering tissue and used for myograph studies.
Contractile properties of middle cerebral arteries were examined using a wire Mulvany-Halpern myograph that records isometric tension (Danish Myo Technology A/S, Aarhus, Denmark). Arteries were cut into cylindrical segments (2 mm), and mounted in the myographs by two parallel 40 μm wires inserted through the lumen. The myograph baths contained 5 ml +37° C. bicarbonate buffer solution (for composition, see Drugs, Chemicals and Solutions) continuously aerated with 5% carbon dioxide in oxygen resulting in pH 7.4. […] The other wire was connected to a force displacement transducer attached to an analogue-digital converter (AD Instruments, Chalgrove, UK). The results were recorded on a computer using a Power Lab unit (AD instruments) and the software LabChart (ADInstruments). After the normalization procedure, the arteries were allowed to equilibrate at this tension for 20 min.
The maximum potassium-mediated contraction was used as a reference value (=100%) for contractile capacity. To eliminate endothelial influence, the production of nitric oxide and prostaglandins was blocked with 100 μM L-NG-nitroarginine methyl ester (L-NAME) and 10 μM indomethacin, respectively, which were present in the tissue baths throughout the experiments on the arteries from the in vivo stroke model.
Receptors for 5-hydroxytryptamine receptors (5-HT) were evaluated by adding 5-carboxamidotryptamine (5-CT, a non-selective 5-HT1 agonist) in concentrations ranging from 10^−11 to 10^−5M (Hansen-Schwartz). The angiotensin type 1 (AT1) receptor was evaluated by cumulative applications of Angiotensin II in concentrations ranging from 10^−12 to 10^−6 M. 30 minutes prior to the experiment, the AT2 receptor antagonist PD123319 was added to eliminate any AT2 receptor-mediated effects. […]
For series [2], the system named is rat basilar arteries (contractile ETB receptors). The series is described as follows: 48 h organ culture of basilar artery, S6c (ETB agonist)-induced contraction in wire myograph. In kind it is cell-based. Conditions: for inhibition of S6c-induced contraction (initial screening groups): 1 μM inhibitor, S6c contraction relative to 60 mM K+; for inhibition of S6c-induced contraction (initial screening groups) / IC50: 48 h organ culture; for IC50: Rattus norvegicus, inhibition of S6c-induced contraction, read-out: pIC50 (based on the Emax for S6c) (converted). How it is done: Rats were sedated with O2/CO2 (30/70%) and sacrificed by decapitation. Brains were gently removed and chilled in a cold oxygenated buffer solution of the following composition: 119 mM NaCl, 4.6 mM KCl, 1.5 mM CaCl2, 1.2 mM MgCl2, 1.2 mM NaH2PO4, 15 mM NaHCO3 and 5.5 mM Glucose; pH 7.4. The basilar artery (BA) was carefully dissected from the brain in a physiological buffer solution followed by either OC (naïve animals) or directly mounted in a wire myograph (arteries from rats which has undergone surgical procedures). Segments were incubated for 48 hours at 37° C. in humidified 5% CO2/O2 in DMEM supplemented with streptomycin and penicillin with inhibitors or vehicle (DMSO). Culture media was changed after 24 hours.
(§1) For contractility measurements, both incubated BAs (ex vivo) and BAs after surgical procedure (in vivo) were cut into segments and mounted on a pair of metal wires (40 μm) in a myograph bath. The arteries from OC were mounted the same way after 48 hours in media. One wire was attached to a micro-meter screw which allows for fine adjustments of the distance between the wires, controlling the vascular tone.
(§2) The segments were equilibrated in physiological buffer aerated with 95% O2/5% CO2, pH of 7.4, temperature set at 37° C. and the wires were separated for isometric pretension at 2 Nm^−1. The arterial segments were exposed two or three times with 60 mM K^+, by exchanging the buffer with a 60 mM K^+ buffer solution. To maintain equal osmolarity, a proportional amount of Na^+ had been removed from the buffer. An absolute cut-off was set at 2.0 mN K^+max for inclusion of arterial segments from rats that underwent the surgical procedure. Endothelium function was evaluated with the addition of 5-HT (3.10^−7 M) followed by carbachol (10^−5 M). For arteries from the OC the protocol was as followed: first a cumulative concentration-response curve to sarafotoxin 6C (S6c, 10^−14-10^−7 M), followed by a concentration-response curve to endothelin-1 (ET-1, 10^−14-10^−7 M). At peak ET-1 (10^−7 M), the buffer was changed to a Ca^2+-free buffer containing 10^−7 M ET-1 and nimodipine (L-type of voltage dependent Ca^2+ channel entry blocker, 10^−7 M). A concentration-response curve to Ca^2+ (0.0125-3 mM) was then performed. When vasodilation was investigated arteries was precontracted with U46619 (1.10^−7-3.10^−7 M) or K^+ (41 mM) and cumulative concentration-response curves was performed by adding calcitonin gene-related peptide (CGRP, 10^−12-10^−7 M), carbachol (10^−10-10^−5 M) or SNP (10^−11-10^−4 M).
(§3) Contractile responses of each segment were adjusted according to the length of the artery and are expressed as mN/mm (Nm^−1). […] To compare ET-1 sensitivity, arteries were normalized to the percentage of the individual vessel ET-1max. When the artery reached maximum contraction before the last concentration was added, the curves were constrained to the max contraction. The relative log IC50/log EC50 is the concentration corresponding to a response midway between the estimates of the lower and upper plateaus. The Emax is the maximal contraction in the concentration response curve and ET-1max is the maximal contraction to ET-1. All quantitative data is presented as mean±standard error of the mean (SEM), unless otherwise stated.

For another series, the system named is rat basilar arteries. The series is described as follows: 48 h organ culture of basilar artery, endothelium function / vasodilation (carbachol, SNP, CGRP). The series is classed as cell-based. Particulars: 1 μM inhibitor; for endothelium function (10-5 M carbachol on arteries precontracted with 5-HT) vs DMSO: 48 h organ culture. The protocol:
Rats were sedated with O2/CO2 (30/70%) and sacrificed by decapitation. […] The basilar artery (BA) was carefully dissected from the brain in a physiological buffer solution followed by either OC (naïve animals) or directly mounted in a wire myograph (arteries from rats which has undergone surgical procedures). Segments were incubated for 48 hours at 37° C. in humidified 5% CO2/O2 in DMEM supplemented with streptomycin and penicillin with inhibitors or vehicle (DMSO). Culture media was changed after 24 hours.
as §1
as §2, with “The” for “The segments were equilibrated in physiological buffer aerated with 95% O2/5% CO2, pH of 7.4, temperature set at 37° C. and the wires were separated for isometric pretension at 2 Nm^−1. The”, “A concentration-response curve to Ca^2+ (0.0125-3 mM) was then performed.” left out

For series [3], the system named is rat subarachnoid haemorrhage model. Description: Rat SAH model, intrathecal treatment, myograph of basilar arteries. In kind it is in vivo. How it is done: as §1
as §2, with “The” for “The segments were equilibrated in physiological buffer aerated with 95% O2/5% CO2, pH of 7.4, temperature set at 37° C. and the wires were separated for isometric pretension at 2 Nm^−1. The”, “A concentration-response curve to Ca^2+ (0.0125-3 mM) was then performed.” left out
If there was only one curve above the cut-off, the concentration-response curve to ET-1 was prioritized. Segments with the highest K^+ response were generally allocated to the concentration-response curve to ET-1. […] The Ca^2+ free buffer solution had similar composition as above, but 1.5 mM CaCl2 was exchanged with 0.03 mM EDTA.
as §3
Rats were anesthetized and prepared for cisternal infusion of autologous blood, which simulates a SAH. Sham-operated rats went through the same procedure, omitting the intracisternal blood injection of 300 μL. At the end of the procedure, a PinPort (PNP3F22, Instech, US) was placed at the end of the ICP catheter to provide access for intrathecal (i.t.) injectable treatments by a PinPort injector (PNP-3M, Instech, US). 24 hours post-surgery, the rats received s.c. injections of Carprofen (Norodyl, 5 mg/kg) (Scanvet, Denmark) for analgesia.
The intrathecal (i.t.) treatment volumes were estimated for a cerebrospinal fluid (CSF) volume of approximately 90 μL (21) and the total dose was administered as three treatments (4 hours, 10 hours and 24 hours) through the PinPort in the ICP catheter placed in the cisterna magna during the surgical procedure. The first and third injections were given under fixation of the rat. […] Animals were given 2.5 ml isotonic saline s.c. to avoid dehydration, immediately after surgery and in conjunction with the 10 hours and 24 hours treatments.

Series [4] concerns rat basilar arteries (contractile ETB receptors). Conditions: cited from earlier work.
In series [5] the test system is rat middle cerebral arteries (ETB receptor). Particulars: former studies, same in vitro setup; cited from earlier work.
The nature of a further series: Solubility (statement). In kind it is physicochemical.

“Also recorded” adds a separate entry of the source.

On to `NCCc1c[nH]c2ccc(C(N)=O)cc12` [5-CT, 5-carboxamidotryptamine], for which the “agonist-mediated contraction (% of maximum potassium-mediated contraction)” value in series [1] (intact females) was 27±18%; in series [1] (ovariectomized females), 8±11%.

In the case of `Cn1cnc2c(F)c(Nc3ccc(Br)cc3F)c(C(=O)NOCCO)cc21` [Binimetinib], in series [2], the “inhibition of S6c-induced contraction (initial screening groups)” value (from here on “inhibition of S6c-induced contraction”) was “Some effect” and the IC50 is 6760 nM.

For `O=C(c1ccc(F)c(F)c1Nc1ccc(I)cc1F)N1CC(O)([C@@H]2CCCCN2)C1` [Cobimetinib], in series [2], the “inhibition of S6c-induced contraction” value is “Highly effective” and the IC50 is 56.2 nM.

On to `O=C(NOC[C@H](O)CO)c1ccc(F)c(F)c1Nc1ccc(I)cc1F` [PD0325901], for which, in series [2], the “inhibition of S6c-induced contraction” value is on record as “Highly effective; also recorded: almost completely inhibited” and the IC50 is 19.5 nM. Further, the “estimated inhibitor effect in the ex vivo OC study” value in series [2] (at predicted CSF concentration of approximately 10^-7 M) is about 75%. In the series with rat basilar arteries (48 h OC), the “Emax following NO donor sodium nitroprusside (SNP)” value was “significant differences in the Emax” and the “response to CGRP” value is “No differences”. Moreover, the “vasodilation in response to carbachol (10^-10-10^-5 M)” value with rat basilar arteries (48 h OC, precontracted with U46619 or K+) is “improved vasodilation”. In addition, the “endothelium function (10-5 M carbachol on arteries precontracted with 5-HT) vs DMSO” value (“endothelium function … vs DMSO” below) with rat basilar arteries is “significant better endothelium function; also recorded: significant increase”. In addition, the “nimodipine insensitive ET-1max contraction” value in series [3] (SAH + i.t. treatment, Ca2+ curve, 10^-7 M nimodipine) turned out to be 1.0±0.3 Nm^−1. For the same compound, the endothelium function entry in series [3] (animals treated in vivo i.t. after SAH) is on record as “No significant changes”.

Turning to `CNS(=O)(=O)Nc1nccc(Cc2c(C)c3ccc(Oc4ncccn4)cc3oc2=O)c1F` [RO5126766], in series [2], the “inhibition of S6c-induced contraction” value is given as “Some effect” and the IC50 was 2090 nM.

For the compound `COc1cc(F)c(F)c(Nc2ccc(I)cc2F)c1NS(=O)(=O)C1(C[C@H](O)CO)CC1` [Refametinib], the “inhibition of S6c-induced contraction” value in series [2] is recorded as “Borderline effective”.

As for `Cn1c(=O)c(F)c(Nc2ccc(I)cc2F)c2c(=O)n(C[C@@H](O)CO)cnc21` [TAK-733], in series [2], the “inhibition of S6c-induced contraction” value is “Highly effective” and the IC50 was 129 nM. In the series on rat basilar arteries, the “endothelium function … vs DMSO” value is “significant better endothelium function; also recorded: significant increase”.

`N#CC(=C(/N)Sc1ccccc1N)/C(C#N)=C(\N)Sc1ccccc1N` [U0126]: the “effect on ETB specific S6c-induced contractility” value in series [4] (10 μM, 48 hours OC, known from earlier work) is “inhibitory effect”. Besides, the “established threshold for efficacy” value in series [4] (used till date) was 10 µM. In series [5], the “concentration used for equivalent inhibition of ETB-receptor mediated contraction” value was 10 µM. The “inhibition of S6c-induced contraction” value in series [2] is recorded as “Not effective; also recorded: no significant effect”. Besides, in the series with rat basilar arteries, the “endothelium function … vs DMSO” value is “poor endothelial response”. In addition, the solubility entry in “Solubility (statement)” is on record as “poor solubility”.

For the compound `CC(=O)[C@H]1CC[C@H]2[C@@H]3CCC4=CC(=O)CC[C@]4(C)[C@H]3CC[C@]12C` [progesterone], the “maximum contractile responses of occluded and non-occluded arteries to S6c, Ang II or 5-CT vs placebo” value in series [1] (ovariectomized rats treated 3 weeks, tMCAO) was “not affected”.

Regarding sarafotoxin 6c [S6c], the “agonist-mediated contraction (% of maximum potassium-mediated contraction)” value in series [1] (intact females) was 22±16%; in series [1] (ovariectomized females) it was 8±9%.
